Molecular target: T1, human mGlu4 receptor (Homo sapiens, UniProt Q14833)
T1 construct: expressed in transfected cells; host or cells: monoclonal HEK-293 cell line, stably transfected
Assay: Ca2+ mobilization in vitro assay on recombinant human mGlu4 expressed in HEK293 cells (PAM, L-AP4 at EC20)
Format: cell-based
Conditions: for Emax: HEK293, maximal response in % of the maximal stimulatory effect obtained with saturating concentrations of L-AP4, read-out: Eff. (%); for EC50: HEK293 cells expressing human mGlu4, L-AP4 added at EC20
From the text: FIG. 1: Illustration of the experimental outline for mGlu4 PAM Ca2+ mobilization screening assay and the determination of EC50 and % Emax values.
Determination of EC50 Values Using a Ca2+ Mobilization In Vitro Assay on Recombinant Human mGlu4 Expressed in HEK293 Cells:
A monoclonal HEK-293 cell line stably transfected with a cDNA encoding for the human mGlu4 receptor was generated; for the work with mGlu4 Positive Allosteric Modulators (PAMs), a cell line with low receptor expression levels and low constitutive receptor activity was selected to allow the differentiation of agonistic versus PAM activity. Cells were cultured according to standard protocols (Freshney, 2000) in Dulbecco's Modified Eagle Medium with high glucose supplemented with 1 mM glutamine, 10% (vol/vol) heat-inactivated bovine calf serum, Penicillin/Streptomycin, 50 μg/ml hygromycin and 15 μg/ml blasticidin (all cell culture reagents and antibiotics from Invitrogen, Basel, Switzerland).
About 24 hrs before an experiment, 5×10^4 cells/well were seeded in poly-D-lysine coated, black/clear-bottomed 96-well plates. The cells were loaded with 2.5 μM Fluo-4AM in loading buffer (1×HBSS, 20 mM HEPES) for 1 hr at 37° C. and washed five times with loading buffer. The cells were transferred into a Functional Drug Screening System 7000 (Hamamatsu, Paris, France), and 11 half logarithmic serial dilutions of test compound at 37° C. were added and the cells were incubated for 10-30 min. with on-line recording of fluorescence. Following this pre-incubation step, the agonist (2S)-2-amino-4-phosphonobutanoic acid (L-AP4) was added to the cells at a concentration corresponding to EC20 with on-line recording of fluorescence; in order to account for day-to-day variations in the responsiveness of cells, the EC20 of L-AP4 was determined immediately ahead of each experiment by recording of a full dose-response curve of L-AP4. Responses were measured as peak increase in fluorescence minus basal (i.e. fluorescence without addition of L-AP4), normalized to the maximal stimulatory effect obtained with saturating concentrations of L-AP4. Graphs were plotted with the % maximal stimulatory using XLfit, a curve fitting program that iteratively plots the data using Levenburg Marquardt algorithm. The single site competition analysis equation used was y=A+((B−A)/(1+((x/C)D))), where y is the % maximal stimulatory effect, A is the minimum y, B is the maximum y, C is the EC50, x is the log 10 of the concentration of the competing compound and D is the slope of the curve (the Hill Coefficient). From these curves the EC50 (drug concentration at which 50% of the maximal receptor activation was achieved), the Hill coefficient as well as the maximal response in % of the maximal stimulatory effect obtained with saturating concentrations of L-AP4 were calculated (see FIG. 1). […] A depression of the signal observed after addition of the EC20 concentration of L-AP4 was indicative of an inhibitory activity of the test compound.

T1 sequence (Q14833 33-912): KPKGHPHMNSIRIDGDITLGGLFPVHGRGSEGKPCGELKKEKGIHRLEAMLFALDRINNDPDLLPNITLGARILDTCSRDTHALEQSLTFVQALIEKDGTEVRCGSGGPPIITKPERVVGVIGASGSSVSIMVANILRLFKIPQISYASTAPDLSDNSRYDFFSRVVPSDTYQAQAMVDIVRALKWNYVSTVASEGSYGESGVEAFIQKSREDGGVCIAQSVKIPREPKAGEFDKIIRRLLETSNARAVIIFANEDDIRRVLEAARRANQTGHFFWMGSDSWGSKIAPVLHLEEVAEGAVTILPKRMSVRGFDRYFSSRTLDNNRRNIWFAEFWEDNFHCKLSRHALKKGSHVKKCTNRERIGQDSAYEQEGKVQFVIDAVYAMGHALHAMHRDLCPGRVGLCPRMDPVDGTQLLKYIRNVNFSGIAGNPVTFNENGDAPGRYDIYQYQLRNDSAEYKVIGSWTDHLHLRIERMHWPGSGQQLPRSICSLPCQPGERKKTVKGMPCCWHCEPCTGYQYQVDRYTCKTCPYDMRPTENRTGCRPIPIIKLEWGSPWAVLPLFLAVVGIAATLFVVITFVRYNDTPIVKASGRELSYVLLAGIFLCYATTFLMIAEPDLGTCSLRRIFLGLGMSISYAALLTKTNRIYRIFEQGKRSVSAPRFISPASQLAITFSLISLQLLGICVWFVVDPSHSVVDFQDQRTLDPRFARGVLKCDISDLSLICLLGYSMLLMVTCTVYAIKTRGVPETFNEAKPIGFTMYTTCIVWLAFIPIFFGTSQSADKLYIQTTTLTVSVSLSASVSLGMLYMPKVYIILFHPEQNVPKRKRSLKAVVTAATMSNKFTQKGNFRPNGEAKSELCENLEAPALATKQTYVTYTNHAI

Row | Emax | EC50 | Structure (SMILES)
1 | 143% | 83 nM | CC[C@@]1(c2ccn(C)n2)CC(=O)N(c2c(F)cc(C#Cc3ccccc3)cc2F)C(=O)N1C [Example 27, (6S)-3-[2,6-Difluoro-4-(2-phenylethynyl)phenyl]-6-ethyl-1-methyl-6-(1-methylpyrazol-3-yl)hexahydropyrimidine-2,4-dione]
2 | 146% | 126 nM | CC(C)n1ccc([C@]2(C)CC(=O)N(c3c(F)cc(C#Cc4ccccc4)cc3F)C(=O)N2C)n1 [Example 29, (6S)-3-[2,6-Difluoro-4-(2-phenylethynyl)phenyl]-6-(1-isopropylpyrazol-3-yl)-1,6-dimethyl-hexahydropyrimidine-2,4-dione]
3 | 195% | 90 nM | CN1C(=O)N(c2c(F)cc(C#Cc3ccccc3)cc2F)C(=O)C[C@@]1(C)c1cnco1 [Example 35, (6S)-3-[2,6-Difluoro-4-(2-phenylethynyl)phenyl]-1,6-dimethyl-6-oxazol-5-yl-hexahydropyrimidine-2,4-dione]
4 | 147% | 50 nM | CN1C(=O)N(c2c(F)cc(C#Cc3ccccc3F)cc2F)C(=O)C[C@@]1(C)c1cnn(C)c1 [Example 50, (6S)-3-[2,6-Difluoro-4-[2-(2-fluorophenyl)ethynyl]phenyl]-1,6-dimethyl-6-(1-methylpyrazol-4-yl)hexahydropyrimidine-2,4-dione]
5 | 143% | 97 nM | CN1C(=O)N(c2c(F)cc(C#Cc3cccc(F)c3F)cc2F)C(=O)C[C@@]1(C)c1cnn(C)c1 [Example 57, (6S)-3-[4-[2-(2,3-Difluorophenyl)ethynyl]-2,6-difluoro-phenyl]-1,6-dimethyl-6-(1-methylpyrazol-4-yl)hexahydropyrimidine-2,4-dione]
6 | 143% | 59 nM | COCCn1ccc([C@]2(C)CC(=O)N(c3c(F)cc(C#Cc4ccccc4)cc3F)C(=O)N2C)n1 [Example 30, (6S)-3-[2,6-Difluoro-4-(2-phenylethynyl)phenyl]-6-[1-(2-methoxyethyl)pyrazol-3-yl]-1,6-dimethyl-hexahydropyrimidine-2,4-dione]
7 | 146% | 69 nM | CN1C(=O)N(c2c(F)cc(C#Cc3ccccc3)cc2F)C(=O)C[C@@]1(C)c1ccn(C)n1 [Example 26, (6S)-3-[2,6-Difluoro-4-(2-phenylethynyl)phenyl]-1,6-dimethyl-6-(1-methylpyrazol-3-yl)hexahydropyrimidine-2,4-dione]
8 | 135% | 47 nM | CC[C@@]1(c2cnn(C)c2)CC(=O)N(c2c(F)cc(C#Cc3ccccc3)cc2F)C(=O)N1C [Example 18, (6S)-3-[2,6-Difluoro-4-(2-phenylethynyl)phenyl]-6-ethyl-1-methyl-6-(1-methylpyrazol-4-yl)hexahydropyrimidine-2,4-dione]
9 | 141% | 39 nM | CN1C(=O)N(c2c(F)cc(C#Cc3cccnc3)cc2F)C(=O)C[C@@]1(C)c1cnn(C)c1 [Example 24, (6S)-3-[2,6-Difluoro-4-[2-(3-pyridyl)ethynyl]phenyl]-1,6-dimethyl-6-(1-methylpyrazol-4-yl)hexahydropyrimidine-2,4-dione]
10 | 142% | 55 nM | CN1C(=O)N(c2c(F)cc(C#Cc3ccc(F)cc3)cc2F)C(=O)C[C@@]1(C)c1cnn(C)c1 [Example 49, (6S)-3-[2,6-Difluoro-4-[2-(4-fluorophenyl)ethynyl]phenyl]-1,6-dimethyl-6-(1-methylpyrazol-4-yl)hexahydropyrimidine-2,4-dione]
11 | 143% | 44 nM | CN1C(=O)N(c2c(F)cc(C#Cc3ccc(F)cc3F)cc2F)C(=O)C[C@@]1(C)c1cn[nH]c1 [Example 56, (6S)-3-[4-[2-(2,4-Difluorophenyl)ethynyl]-2,6-difluoro-phenyl]-1,6-dimethyl-6-(1H-pyrazol-4-yl)hexahydropyrimidine-2,4-dione]
12 | 99% | 71 nM | CN1C(=O)N(c2c(F)cc(C#Cc3ccccc3)cc2F)C(=O)C[C@@]1(C)c1ccn(CC(C)(C)O)n1 [Example 63, (6S)-3-[2,6-Difluoro-4-(2-phenylethynyl)phenyl]-6-[1-(2-hydroxy-2-methyl-propyl)pyrazol-3-yl]-1,6-dimethyl-hexahydropyrimidine-2,4-dione]
13 | 109% | 121 nM | CN1C(=O)N(c2c(F)cc(C#Cc3ccccc3)cc2F)C(=O)C[C@@]1(C)c1cn(C)cn1 [Example 2, (6S)-3-[2,6-Difluoro-4-(2-phenylethynyl)phenyl]-1,6-dimethyl-6-(1-methylimidazol-4-yl)hexahydropyrimidine-2,4-dione]
14 | 119% | 113 nM | CN1C(=O)N(c2c(F)cc(C#Cc3ccccc3)cc2F)C(=O)C[C@@]1(C)c1nccs1 [Example 1, (6S)-3-[2,6-Difluoro-4-(2-phenylethynyl)phenyl]-1,6-dimethyl-6-thiazol-2-yl-hexahydropyrimidine-2,4-dione]
15 | 154% | 126 nM | CN1C(=O)N(c2c(F)cc(C#Cc3ccccc3)cc2F)C(=O)C[C@@]1(C)c1nn(C)c2ncccc12 [Example 17, (6S)-3-[2,6-Difluoro-4-(2-phenylethynyl)phenyl]-1,6-dimethyl-6-(1-methylpyrazolo[3,4-b]pyridin-3-yl)hexahydropyrimidine-2,4-dione]
16 | 160% | 44 nM | CN1C(=O)N(c2c(F)cc(C#Cc3cccc(F)c3)cc2F)C(=O)C[C@@]1(C)c1cn[nH]c1 [Example 59, (6S)-3-[2,6-Difluoro-4-[2-(3-fluorophenyl)ethynyl]phenyl]-1,6-dimethyl-6-(1H-pyrazol-4-yl)hexahydropyrimidine-2,4-dione]
17 | 117% | 23 nM | COCCCn1ccc([C@]2(C)CC(=O)N(c3c(F)cc(C#Cc4ccccc4)cc3F)C(=O)N2C)n1 [Example 31, (6S)-3-[2,6-Difluoro-4-(2-phenylethynyl)phenyl]-6-[1-(3-methoxypropyl)pyrazol-3-yl]-1,6-dimethyl-hexahydropyrimidine-2,4-dione]
18 | 142% | 47 nM | CN1C(=O)N(c2c(F)cc(C#Cc3ccccc3)cc2F)C(=O)C[C@@]1(C)c1cnn(CC(C)(C)O)c1 [Example 60, (6S)-3-[2,6-Difluoro-4-(2-phenylethynyl)phenyl]-6-[1-(2-hydroxy-2-methyl-propyl)pyrazol-4-yl]-1,6-dimethyl-hexahydropyrimidine-2,4-dione]
19 | 98% | 88 nM | CN1C(=O)N(c2c(F)cc(C#Cc3ccccc3)cc2F)C(=O)C[C@@]1(C)c1ccn(C2CCOC2)n1 (mixture of isomers) [Example 64, (6S)-3-[2,6-Difluoro-4-(2-phenylethynyl)phenyl]-1,6-dimethyl-6-[1-[(3RS)-tetrahydrofuran-3-yl]pyrazol-3-yl]hexahydropyrimidine-2,4-dione]
20 | 114% | 20 nM | CN1C(=O)N(c2c(F)cc(C#Cc3ccccc3)cc2F)C(=O)C[C@@]1(C)c1cnn[nH]1 [Example 32, (6S)-3-[2,6-Difluoro-4-(2-phenylethynyl)phenyl]-1,6-dimethyl-6-(1H-triazol-5-yl)hexahydropyrimidine-2,4-dione]
21 | 136% | 45 nM | CC[C@@]1(c2cn[nH]c2)CC(=O)N(c2c(F)cc(C#Cc3cccnc3)cc2F)C(=O)N1C [Example 51, (6S)-3-[2,6-Difluoro-4-[2-(3-pyridyl)ethynyl]phenyl]-6-ethyl-1-methyl-6-(1H-pyrazol-4-yl)hexahydropyrimidine-2,4-dione]
22 | 110% | 63 nM | CN1C(=O)N(c2c(F)cc(C#Cc3ccccc3)cc2F)C(=O)C[C@@]1(C)c1cnn(CC2COC2)c1 [Example 61, (6S)-3-[2,6-Difluoro-4-(2-phenylethynyl)phenyl]-1,6-dimethyl-6-[1-(oxetan-3-ylmethyl)pyrazol-4-yl]hexahydropyrimidine-2,4-dione]
23 | 145% | 17 nM | CN1C(=O)N(c2c(F)cc(C#Cc3ccccc3F)cc2F)C(=O)C[C@@]1(C)c1cn[nH]c1 [Example 53, (6S)-3-[2,6-Difluoro-4-[2-(2-fluorophenyl)ethynyl]phenyl]-1,6-dimethyl-6-(1H-pyrazol-4-yl)hexahydropyrimidine-2,4-dione]

— US10065956B2, “Ethynyl derivatives” (Hoffmann-La Roche Inc., priority 2015, dated 2018)
